Source: patent US7198958B2, “Method for increasing hydrophilicity of fluorescent label compounds” (Arctic Diagnostics Oy, priority 2001, dated 2007)

Key:
Assay type in all cases: physicochemical
mouse IgG anti-AFP [1] = assay: Labelling of mouse IgG anti-AFP with rhodamine 6G labels; absorption spectrum of the conjugate; conditions: for normal absorption band of labelled mouse IgG anti-AFP: absorption spectrum of IgG conjugate in phosphate buffered saline pH 7.4; for additional absorption band of labelled mouse IgG anti-AFP (non-fluorescent aggregates, hydrophobic interactions): absorption spectrum of IgG conjugate, equi-intense band, absent in excitation spectrum
Protocol: To the solution of 0.28 mg (1.75 nmol) of mouse IgG anti-AFP in 200 μl phosphate buffered saline (10/150 mM, pH 7.4) a 10 fold excess (17.5 nmol) of 5-carboxyrhodamine 6G succinimidyl ester (compound 15, Molecular Probes, Eugene, Oreg.) in anhydrous N,N-dimethylformamide or a 20 fold excess of Glu-Tau-succinimide derivative of 5-carboxyrhodamine 6G in acetonitrile water (reaction mixture of example 14, compound 17) was added. 40 μl of NaHCO3 (1 M, aq) was added and the mixtures were incubated at room temperature for 2 h. The products were purified with NAP-5 gel filtration column (Amersham Pharmacia Biotech, Uppsala, Sweden) using phosphate buffered saline (50/150, 10 mM NaN3, pH 7.4) as eluent. The fast moving coloured fractions were collected.
This additional absorption originates from hydrophobic interactions between the fluorophores and protein or between the two fluorophores. […] These non-fluorescent aggregates are typical for hydrophobic xanthene-type dyes (rhodamines and fluoresceins).

[2] = test system: 5′-aminomodified oligonucleotide; assay: Labelling of oligonucleotide; fluorescence yield of labelled oligonucleotide; conditions: labelled oligonucleotides diluted to equimolar concentrations
Protocol: To the solution of 5′-aminomodified oligonucleotide (17 bases, 28 μg, 5 nmol) in carbonate buffer (200 μl, 100 mM, pH 8.5) a 40 fold excess of labelling reagent (compound 2 or 4) in anhydrous DMF (50 μl) was added. Reaction mixture was incubated at 22° C. for 20 h. The labelled oligonucleotides were purifed by using reverse phase HPLC (RP-18 column) and gradient elution technique. Solvents were A: 2% acetonitrile in triethylammonium acetate buffer (50 mM, pH 7) and B: 70% acetonitrile in triethylammonium acetate buffer (50 mM, pH 7). The gradient started from 5% of solvent B and the amount of solvent B linearly raised to 40% in 25 minutes. Both dye-oligonucleotide conjugates (labelled with compound 2 or with compound 4) eluted between 18 to 22 minutes while the unlabelled oligonucleotide eluted at a timepoint of 10 minutes. The unbound labelling reagent was removed from the column by increasing the amount of solvent B to 100%.
The concentrations of the labelled oligonucleotides were determined spectrophotometrically. […] The labelled oligonucleotides were diluted to equimolar concentrations and the fluorescence yields were determined. […] The higher fluorescence yield of the oligonucleotide labelled with compound 4 can be explained by increased hydrophilicity of the label compound and increased distance between the label and the oligonucleotide.

mouse IgG anti-AFP [3] = assay: Labelling of mouse IgG anti-AFP with dipyrrometheneboron difluoride dyes; conditions: 10 fold excess of label, phosphate buffered saline pH 7.4, room temperature 2 h
Protocol: To the solution of 1.5 mg (9.3 nmol) of mouse IgG anti-AFP in 400 μl phosphate buffered saline (10/150 mM, pH 7.4) a 10 fold excess (93 nmol) of compound 2, 4, 5 or 6 in anhydrous N,N-dimethylformamide was added. 40 μl of NaHCO3 (1 M, aq) was added and the mixture was incubated at room temperature for 2 h. The products were purified with NAP-5 gel filtration column (Amersham Pharmacia Biotech, Uppsala, Sweden) using phosphate buffered saline (50/150, 10 mM NaN3, pH 7.4) as eluent. The fast moving coloured fractions were collected. […] The labelling degrees of these protein conjugates (compound 4 and 6) were determined spectrophotometrically. Labelling degrees of 2.1 (compound 4) and 2.3 (compound 6) fluorophores per protein were obtained.

Molecule	normal absorption band of labelled mouse IgG anti-AFP (mouse IgG anti-AFP [1])	additional absorption band of labelled mouse IgG anti-AFP (non-fluorescent aggregates, hydrophobic interactions) (mouse IgG anti-AFP [1])	fluorescence yield of labelled oligonucleotide compared with oligonucleotide labelled with compound 2 [2]	precipitation of the labelled proteins on labelling (mouse IgG anti-AFP [3])
CCN=c1cc2oc3cc(NCC)c(C)cc3c(-c3ccc(C(=O)ON4C(=O)CCC4=O)cc3C(=O)O)c-2cc1C [compound 15, 5-carboxyrhodamine 6G succinimidyl ester, reference compound]	530 nm	504 nm	–	–
Glu-Tau-succinimide derivative of 4,4-difluoro-5-(2-thienyl)-1,3-dimethyl-4-bora-3a,4a-diaza-s-indacene-2-propionic acid [compound 4]	–	–	one order of magnitude higher	proceeded without any problems
Glu-Tau-succinimide derivative of 5-carboxyrhodamine 6G [compound 17]	530 nm	absence of additional absorption band	–	–
4,4-difluoro-(2-pyrrolyl)-1,3-dimethyl-4-bora-3a,4a-diaza-s-indacene-2-propionic acid succinimidyl ester [compound 5, reference compound]	–	–	–	almost complete precipitation of the labelled proteins
Glu-Tau-succinimide derivative of 4,4-difluoro-5-(2-pyrrolyl)-1,3-dimethyl-4-bora-3a,4a-diaza-s-indacene-2-propionic acid [compound 6]	–	–	–	proceeded without any problems
4,4-difluoro-5-(2-thienyl)-1,3-dimethyl-4-bora-3a,4a-diaza-s-indacene-2-propionic acid succinimidyl ester [compound 2, reference compound]	–	–	–	almost complete precipitation of the labelled proteins
